Results reported in ChEMBL document CHEMBL1201862, “PubChem BioAssay data set” (2004).
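1) Cells in 96-well plates. 2) Compound, 48 h, 5 concentrations. 3) Linear interpolation between surrounding doses. 4) Unreached endpoint = highest concentration. GI50 is the concentration that inhibits growth by half.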 The source made the active and inactive calls. Rule as the data show it: active = GI50 up to about 1.1 µM and inactive = higher.

What was measured:
Assay in all cases: growth of human tumour cells (NCI), 48 h
SF-268 = system: SF-268
SNB-19 = system: SNB-19
A498 = system: A498
U-251 = system: U-251
SF-539 = system: SF-539
NCI-H522 = system: NCI-H522
CAKI-1 = system: CAKI-1
A549 = system: A549
COLO 205 = system: COLO 205
OVCAR-3 = system: OVCAR-3
SF-295 = system: SF-295
HCT-116 = system: HCT-116
NCI-H460 = system: NCI-H460
KM12 = system: KM12
SN12C = system: SN12C
T47D = system: T47D
PC-3 = system: PC-3
NCI/ADR-RES = system: NCI/ADR-RES
Hs-578T = system: Hs-578T
MDA-MB-435 = system: MDA-MB-435

Compound	GI50 (SF-268)	GI50 (SNB-19)	GI50 (A498)	GI50 (U-251)	GI50 (SF-539)	GI50 (NCI-H522)	GI50 (CAKI-1)	GI50 (A549)	GI50 (COLO 205)	GI50 (OVCAR-3)	GI50 (SF-295)	GI50 (HCT-116)	GI50 (NCI-H460)	GI50 (KM12)	GI50 (SN12C)	GI50 (T47D)	GI50 (PC-3)	GI50 (NCI/ADR-RES)	GI50 (Hs-578T)	GI50 (MDA-MB-435)
CNC(=O)OCc1nc(SSc2nc(COC(=O)NC)c(COC(=O)NC)n2C)n(C)c1COC(=O)NC	> 100 µM (inactive)	> 100 µM (inactive)	> 100 µM (inactive)	> 100 µM (inactive)	> 100 µM (inactive)	> 100 µM (inactive)	> 100 µM (inactive)	> 100 µM (inactive)	> 100 µM (inactive)	> 100 µM (inactive)	> 100 µM (inactive)	> 100 µM (inactive)	> 100 µM (inactive)	> 100 µM (inactive)	> 100 µM (inactive)	–	–	–	–	–
C=CCCCCCCC#CCCCCCCCCCC[C@@H]1C(=O)O[C@H](C)[C@@H]1O.CCCCCCCCC#CCCCCCCCCCC[C@@H]1C(=O)O[C@H](C)[C@@H]1O	13.9 µM (inactive)	15.9 µM (inactive)	55.3 µM (inactive)	18.7 µM (inactive)	20.8 µM (inactive)	5.32 µM (inactive)	15.5 µM (inactive)	14.1 µM (inactive)	24.8 µM (inactive)	20.2 µM (inactive)	18.8 µM (inactive)	16.2 µM (inactive)	11.7 µM (inactive)	10.1 µM (inactive)	15.3 µM (inactive)	14.9 µM (inactive)	13.1 µM (inactive)	9.59 µM (inactive)	–	–
C/N=C(\N)N/N=C(\C)c1ccc2oc3ccc(/C(C)=N/N/C(N)=N/C)cc3c2c1	2.09 µM (inactive)	2.11 µM (inactive)	–	1.61 µM (inactive)	1.62 µM (inactive)	1.67 µM (inactive)	19.4 µM (inactive)	2.86 µM (inactive)	3.27 µM (inactive)	2.64 µM (inactive)	3.85 µM (inactive)	2.79 µM (inactive)	1.98 µM (inactive)	3.16 µM (inactive)	2.46 µM (inactive)	–	3.01 µM (inactive)	> 39.1 µM (inactive)	1.43 µM (inactive)	2.92 µM (inactive)
C/C(=N\NC(N)=S)c1ccc2c(c1)OCO2	> 100 µM (inactive)	> 100 µM (inactive)	> 100 µM (inactive)	> 100 µM (inactive)	> 100 µM (inactive)	32.4 µM (inactive)	> 100 µM (inactive)	> 100 µM (inactive)	> 100 µM (inactive)	> 100 µM (inactive)	> 100 µM (inactive)	> 100 µM (inactive)	> 100 µM (inactive)	> 100 µM (inactive)	> 100 µM (inactive)	–	–	–	–	–
O=C(Nc1c(O)[nH]c(=S)[nH]c1=O)c1ccccn1	> 100 µM (inactive)	> 100 µM (inactive)	> 100 µM (inactive)	> 100 µM (inactive)	> 100 µM (inactive)	> 100 µM (inactive)	> 100 µM (inactive)	> 100 µM (inactive)	> 100 µM (inactive)	> 100 µM (inactive)	> 100 µM (inactive)	> 100 µM (inactive)	> 100 µM (inactive)	> 100 µM (inactive)	> 100 µM (inactive)	–	–	–	–	–
O=C(c1c(O)cc(O)cc1O)C1Cc2ccccc21 (configuration not stated)	53.1 µM (inactive)	64 µM (inactive)	> 100 µM (inactive)	47.2 µM (inactive)	32.2 µM (inactive)	10.3 µM (inactive)	39.5 µM (inactive)	91.6 µM (inactive)	> 100 µM (inactive)	–	42.3 µM (inactive)	86.5 µM (inactive)	82.4 µM (inactive)	> 100 µM (inactive)	> 100 µM (inactive)	–	–	–	–	–
Cc1nc(Cc2n[nH]c(C)n2)n[nH]1	> 100 µM (inactive)	> 100 µM (inactive)	–	> 100 µM (inactive)	> 100 µM (inactive)	> 100 µM (inactive)	–	> 100 µM (inactive)	> 100 µM (inactive)	> 100 µM (inactive)	> 100 µM (inactive)	> 100 µM (inactive)	–	> 100 µM (inactive)	> 100 µM (inactive)	–	> 100 µM (inactive)	> 100 µM (inactive)	–	> 100 µM (inactive)
Fc1ccccc1C1SCc2nc3ccccc3n21 (configuration not stated)	69.8 µM (inactive)	86.7 µM (inactive)	9.62 µM (inactive)	–	> 100 µM (inactive)	28 µM (inactive)	44.8 µM (inactive)	36.5 µM (inactive)	77.3 µM (inactive)	38.4 µM (inactive)	41.8 µM (inactive)	38.5 µM (inactive)	47.9 µM (inactive)	89.9 µM (inactive)	79.6 µM (inactive)	–	–	–	–	–
O=C1CCC2(c3ccc(Cl)cc3)Nc3ncccc3N12 (configuration not stated)	> 100 µM (inactive)	–	> 100 µM (inactive)	> 100 µM (inactive)	> 100 µM (inactive)	> 100 µM (inactive)	> 100 µM (inactive)	> 100 µM (inactive)	> 100 µM (inactive)	> 100 µM (inactive)	> 100 µM (inactive)	–	> 100 µM (inactive)	> 100 µM (inactive)	> 100 µM (inactive)	–	–	–	–	–
O=C(Cc1nc2ccccc2s1)Nc1ccc(Cl)cc1	> 100 µM (inactive)	> 100 µM (inactive)	> 100 µM (inactive)	> 100 µM (inactive)	> 100 µM (inactive)	> 100 µM (inactive)	> 100 µM (inactive)	97.9 µM (inactive)	> 100 µM (inactive)	> 100 µM (inactive)	55.6 µM (inactive)	> 100 µM (inactive)	> 100 µM (inactive)	78.5 µM (inactive)	> 100 µM (inactive)	–	–	–	–	–
CCCCCCCCCCN(CCCCCCCCCC)C(=O)COc1c2cc(C(C)(C)C)cc1Cc1cc(C(C)(C)C)cc(c1OCC(=O)N(CCCCCCCCCC)CCCCCCCCCC)Cc1cc(C(C)(C)C)cc(c1OCC(=O)N(CCCCCCCCCC)CCCCCCCCCC)Cc1cc(C(C)(C)C)cc(c1OCC(=O)N(CCCCCCCCCC)CCCCCCCCCC)C2	15.1 µM (inactive)	9.79 µM (inactive)	15.5 µM (inactive)	11.2 µM (inactive)	4.34 µM (inactive)	3.18 µM (inactive)	–	16 µM (inactive)	15.8 µM (inactive)	15.7 µM (inactive)	10.1 µM (inactive)	2.54 µM (inactive)	12.6 µM (inactive)	11.5 µM (inactive)	13.4 µM (inactive)	16.1 µM (inactive)	9.93 µM (inactive)	14.8 µM (inactive)	–	12.9 µM (inactive)
N#COc1ccc(Oc2ccccc2)cc1	75.2 µM (inactive)	> 100 µM (inactive)	> 100 µM (inactive)	42.7 µM (inactive)	26.8 µM (inactive)	34.7 µM (inactive)	77.6 µM (inactive)	73.3 µM (inactive)	64 µM (inactive)	> 100 µM (inactive)	59.8 µM (inactive)	61.7 µM (inactive)	43.2 µM (inactive)	> 100 µM (inactive)	62.4 µM (inactive)	–	–	–	–	–
N#CC1CC2(CCN1C(=O)c1ccccc1)OCCO2 (configuration not stated)	> 100 µM (inactive)	> 100 µM (inactive)	> 100 µM (inactive)	> 100 µM (inactive)	> 100 µM (inactive)	0.308 µM (active)	> 100 µM (inactive)	> 100 µM (inactive)	> 100 µM (inactive)	> 100 µM (inactive)	> 100 µM (inactive)	> 100 µM (inactive)	> 100 µM (inactive)	> 100 µM (inactive)	> 100 µM (inactive)	–	–	–	–	–
Cc1ccccc1Nc1cn(CCOc2ccccc2)c(=O)n(CCOc2ccccc2)c1=O	> 100 µM (inactive)	> 10 µM (inactive)	> 100 µM (inactive)	> 100 µM (inactive)	–	12.5 µM (inactive)	> 100 µM (inactive)	> 100 µM (inactive)	96.2 µM (inactive)	> 100 µM (inactive)	> 100 µM (inactive)	> 100 µM (inactive)	> 100 µM (inactive)	> 100 µM (inactive)	> 100 µM (inactive)	–	> 100 µM (inactive)	> 100 µM (inactive)	> 100 µM (inactive)	> 100 µM (inactive)
CCOC(=O)Cc1nnc2c(-c3ccccc3)nc3ccccc3n12	20.6 µM (inactive)	24.8 µM (inactive)	52.5 µM (inactive)	22.4 µM (inactive)	> 100 µM (inactive)	–	–	> 100 µM (inactive)	> 100 µM (inactive)	14.6 µM (inactive)	–	35.4 µM (inactive)	> 100 µM (inactive)	> 100 µM (inactive)	53.8 µM (inactive)	–	34.5 µM (inactive)	90.6 µM (inactive)	–	> 100 µM (inactive)
CC(=O)OCC1OC(OCC2OC(N3C(=S)N[C@H]([C@@H](O)[C@H](O)[C@H](O)CO)[C@H]3O)C(OC(C)=O)C(OC(C)=O)C2OC(C)=O)C(OC(C)=O)C(OC(C)=O)C1OC(C)=O (some centres not stated)	> 100 µM (inactive)	> 100 µM (inactive)	> 100 µM (inactive)	> 100 µM (inactive)	> 100 µM (inactive)	83.8 µM (inactive)	> 100 µM (inactive)	> 100 µM (inactive)	> 100 µM (inactive)	> 100 µM (inactive)	> 100 µM (inactive)	> 100 µM (inactive)	> 100 µM (inactive)	> 100 µM (inactive)	> 100 µM (inactive)	61.8 µM (inactive)	> 100 µM (inactive)	> 100 µM (inactive)	–	> 100 µM (inactive)
